pEC50: −log10 of the molar value. Where a name gives a salt, the structure may show the parent alone.
Each compound was assayed against PAR4 (Homo sapiens (Human), UniProt Q96RI0) (assay: FLIPR assay in PAR4-expressing HEK293 cells (PAR4 antagonist activity, calcium mobilization)). Conditions: H-Ala-Phe(4-F)-Pro-Gly-Trp-Leu-Val-Lys-Asn-Gly-NH2-induced calcium mobilization.
PAR4, sequence (Q96RI0 18-385): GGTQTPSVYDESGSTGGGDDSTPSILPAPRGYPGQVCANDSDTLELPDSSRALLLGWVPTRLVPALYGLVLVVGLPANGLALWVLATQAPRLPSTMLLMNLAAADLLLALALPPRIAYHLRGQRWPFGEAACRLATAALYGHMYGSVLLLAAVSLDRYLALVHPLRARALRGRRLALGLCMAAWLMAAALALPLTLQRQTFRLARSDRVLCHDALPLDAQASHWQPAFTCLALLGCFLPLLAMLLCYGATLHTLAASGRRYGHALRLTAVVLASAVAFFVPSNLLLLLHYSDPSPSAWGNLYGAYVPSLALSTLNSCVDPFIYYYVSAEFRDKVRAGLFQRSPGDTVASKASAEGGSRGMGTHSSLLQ
Format: cell-based
Outline: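 HEK293 EBNA cells stably expressing human PAR4 (also endogenous PAR1) preincubated 30 min at room temperature with compound in HBSS/10 mM HEPES, 0.67% DMSO final. PAR4 agonist peptide then added and intracellular calcium mobilization monitored by fluorescence.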
For `COc1ccc(C2(c3nc(COc4cc(OC)cc5oc(-c6cn7nc(OC)sc7n6)cc45)cs3)CCOCC2)cc1` [Example 159, 2-Methoxy-6-(6-methoxy-4-((2-(4-(4-methoxyphenyl)tetrahydro-2H-pyran-4-yl)thiazol-4-yl)methoxy)benzofuran-2-yl)imidazo[2,1-b][1,3,4]thiadiazole], the pEC50 was 9.39.
Work on `COC(=O)c1ccc(C2(c3nc(COc4cc(OC)cc5oc(-c6cn7nc(OC)sc7n6)cc45)cs3)CCOCC2)cc1` [Example 160, Methyl 4-(4-(4-(((6-methoxy-2-(2-methoxyimidazo[2,1-b][1,3,4]thiadiazol-6-yl)benzofuran-4-yl)oxy)methyl)thiazol-2-yl)tetrahydro-2H-pyran-4-yl)benzoate] yielded a pEC50 of 9.30.
With `COc1cc(OCc2csc(C3(c4ccccc4)CCOCC3)n2)c2cc(-c3cn4nc(OC)sc4n3)oc2c1` [Example 162, 2-Methoxy-6-(6-methoxy-4-((2-(4-phenyltetrahydro-2H-pyran-4-yl)thiazol-4-yl)methoxy)benzofuran-2-yl)imidazo[2,1-b][1,3,4]thiadiazole] the pEC50 was 9.17.
`COc1cc(OCc2csc(C3(c4ccc(Cl)cc4)CCOC3)n2)c2cc(-c3cn4nc(OC)sc4n3)oc2c1` (stereo not shown) [Example 163, 6-(4-((2-(3-(4-Chlorophenyl)tetrahydrofuran-3-yl)thiazol-4-yl)methoxy)-6-methoxybenzofuran-2-yl)-2-methoxyimidazo[2,1-b][1,3,4]thiadiazole] gave a pEC50 of 9.09.
`COc1cc(OCc2csc(C3(c4ccc(C)cc4)CCOC3)n2)c2cc(-c3cn4nc(OC)sc4n3)oc2c1` (stereo not shown) [Example 164, 2-Methoxy-6-(6-methoxy-4-((2-(3-(p-tolyl)tetrahydrofuran-3-yl)thiazol-4-yl)methoxy)benzofuran-2-yl)imidazo[2,1-b][1,3,4]thiadiazole] gave a pEC50 of 8.89.
Compound `COc1cc(OCc2csc(C3(c4cccc(Cl)c4)CCOC3)n2)c2cc(-c3cn4nc(OC)sc4n3)oc2c1` (stereo not shown) [Example 165, 6-(4-((2-(3-(3-Chlorophenyl)tetrahydrofuran-3-yl)thiazol-4-yl)methoxy)-6-methoxybenzofuran-2-yl)-2-methoxyimidazo[2,1-b][1,3,4]thiadiazole] has a pEC50 of 8.96.
Work on `COc1cc(OCc2csc(C3(c4ccccc4F)CCOC3)n2)c2cc(-c3cn4nc(OC)sc4n3)oc2c1` (stereo not shown) [Example 166, 6-(4-((2-(3-(2-Fluorophenyl)tetrahydrofuran-3-yl)thiazol-4-yl)methoxy)-6-methoxybenzofuran-2-yl)-2-methoxyimidazo[2,1-b][1,3,4]thiadiazole] yielded a pEC50 of 9.01.
`COc1cc(OCc2csc(C3(C)CCOCC3)n2)c2cc(-c3cn4nc(OC)sc4n3)oc2c1` [Example 167, 2-Methoxy-6-(6-methoxy-4-((2-(4-methyltetrahydro-2H-pyran-4-yl)thiazol-4-yl)methoxy)benzofuran-2-yl)imidazo[2,1-b][1,3,4]thiadiazole] was tested, and the pEC50 was 9.59.
`COc1cc(OCc2csc(C3CCOc4ccccc43)n2)c2cc(-c3cn4nc(OC)sc4n3)oc2c1` (stereo not shown) [Example 168, 6-(4-((2-(Chroman-4-yl)thiazol-4-yl)methoxy)-6-methoxybenzofuran-2-yl)-2-methoxyimidazo[2,1-b][1,3,4]thiadiazole] showed a pEC50 of 9.55.
Compound `COc1cc(OCc2csc(C3=CCOc4ccccc43)n2)c2cc(-c3cn4nc(OC)sc4n3)oc2c1` [Example 169, 6-(4-((2-(2H-Chromen-4-yl)thiazol-4-yl)methoxy)-6-methoxybenzofuran-2-yl)-2-methoxyimidazo[2,1-b][1,3,4]thiadiazole] has a pEC50 of 8.89.
`COc1cc(OCc2csc(C3(N[S@+]([O-])C(C)(C)C)CCOCC3)n2)c2cc(-c3cn4nc(OC)sc4n3)oc2c1` [Example 170, (R)-N-(4-(4-(((6-Methoxy-2-(2-methoxyimidazo[2,1-b][1,3,4]thiadiazol-6-yl)benzofuran-4-yl)oxy)methyl)thiazol-2-yl)tetrahydro-2H-pyran-4-yl)-2-methylpropane-2-sulfinamide] was tested, and the pEC50 was 8.77.
`COc1cc(OCc2csc(C3(NS(=O)(=O)C(C)(C)C)CCOCC3)n2)c2cc(-c3cn4nc(OC)sc4n3)oc2c1` [Example 171, N-(4-(4-(((6-Methoxy-2-(2-methoxyimidazo[2,1-b][1,3,4]thiadiazol-6-yl)benzofuran-4-yl)oxy)methyl)thiazol-2-yl)tetrahydro-2H-pyran-4-yl)-2-methylpropane-2-sulfonamide] showed a pEC50 of 9.57.
Work on `COc1cc(OCc2csc(C3(N)CCOCC3)n2)c2cc(-c3cn4nc(OC)sc4n3)oc2c1` [Example 172, 4-(4-(((6-Methoxy-2-(2-methoxyimidazo[2,1-b][1,3,4]thiadiazol-6-yl)benzofuran-4-yl)oxy)methyl)thiazol-2-yl)tetrahydro-2H-pyran-4-amine, HCl] yielded a pEC50 of 9.03.
Work on `COc1cc(OCc2csc(C3(NC(=O)CNC(=O)OC(C)(C)C)CCOCC3)n2)c2cc(-c3cn4nc(OC)sc4n3)oc2c1` [Example 173, tert-Butyl (2-((4-(4-(((6-methoxy-2-(2-methoxyimidazo-[2,1-b][1,3,4]thiadiazol-6-yl)benzofuran-4-yl)oxy)methyl)-thiazol-2-yl)tetrahydro-2H-pyran-4-yl)amino)-2-oxoethyl)carbamate] yielded a pEC50 of 9.17.
Compound `COc1cc(OCc2csc(C3(NC(=O)CN(C)C)CCOCC3)n2)c2cc(-c3cn4nc(OC)sc4n3)oc2c1` [Example 174, 2-(Dimethylamino)-N-(4-(4-(((6-methoxy-2-(2-methoxyimidazo[2,1-b][1,3,4]thiadiazol-6-yl)benzofuran-4-yl)oxy)methyl)-thiazol-2-yl)tetrahydro-2H-pyran-4-yl)acetamide] has a pEC50 of 7.62.
`COc1cc(OCc2csc(C(C)(C)c3ccccc3)n2)c2cc(-c3cn4nc(OC)sc4n3)oc2c1` [Example 175, 2-Methoxy-6-(6-methoxy-4-((2-(2-phenylpropan-2-yl)thiazol-4-yl)methoxy)benzofuran-2-yl)imidazo[2,1-b][1,3,4]thiadiazole] gave a pEC50 of 8.85.
`COc1cc(OCc2csc(C(C)(C)c3ccc(Cl)cc3)n2)c2cc(-c3cn4nc(OC)sc4n3)oc2c1` [Example 176, 6-(4-((2-(2-(4-Chlorophenyl)propan-2-yl)thiazol-4-yl)methoxy)-6-methoxybenzofuran-2-yl)-2-methoxyimidazo[2,1-b][1,3,4]thiadiazole] was tested, and the pEC50 was 8.89.
In the case of `COc1cc(OCc2csc(C3(c4cccnc4)CCC3)n2)c2cc(-c3cn4nc(OC)sc4n3)oc2c1` [Example 177, 2-Methoxy-6-(6-methoxy-4-((2-(1-(pyridin-3-yl)cyclobutyl)thiazol-4-yl)methoxy)benzofuran-2-yl)imidazo[2,1-b][1,3,4]thiadiazole], the pEC50 was 9.21.
`C=C(c1cncnc1)c1nc(COc2cc(OC)cc3oc(-c4cn5nc(OC)sc5n4)cc23)cs1` [Example 178, 2-Methoxy-6-(6-methoxy-4-((2-(1-(pyrimidin-5-yl)vinyl)thiazol-4-yl)methoxy)benzofuran-2-yl)imidazo[2,1-b][1,3,4]thiadiazole] showed a pEC50 of 9.06.
Compound `CCN(CCC#N)C(=O)c1ccc(-c2nc(COc3cc(F)cc4oc(-c5cn6nc(OC)sc6n5)cc34)cs2)cc1` [Example 180, N-(2-Cyanoethyl)-N-ethyl-4-(4-(((6-fluoro-2-(2-methoxyimidazo[2,1-b][1,3,4]thiadiazol-6-yl)benzofuran-4-yl)oxy)methyl)thiazol-2-yl)benzamide] has a pEC50 of 9.33.
Work on `COc1nn2cc(-c3cc4c(OCc5csc(-c6ccc(C(=O)NCC(F)(F)F)cc6)n5)cc(F)cc4o3)nc2s1` [Example 181, 4-(4-(((6-Fluoro-2-(2-methoxyimidazo[2,1-b][1,3,4]thiadiazol-6-yl)benzofuran-4-yl)oxy)methyl)thiazol-2-yl)-N-(2,2,2-trifluoroethyl)benzamide] yielded a pEC50 of 9.14.
`COc1nn2cc(-c3cc4c(OCc5csc(-c6ccc(C(=O)N(C)C(C)(C)C)cc6)n5)cc(F)cc4o3)nc2s1` [Example 182, N-(tert-Butyl)-4-(4-(((6-fluoro-2-(2-methoxyimidazo[2,1-b][1,3,4]thiadiazol-6-yl)benzofuran-4-yl)oxy)methyl)thiazol-2-yl)-N-methylbenzamide] showed a pEC50 of 9.52.
In the case of `COc1nn2cc(-c3cc4c(OCc5csc(-c6ccc(C(=O)N7CCCC7)cc6)n5)cc(F)cc4o3)nc2s1` [Example 183, (4-(4-(((6-Fluoro-2-(2-methoxyimidazo[2,1-b][1,3,4]thiadiazol-6-yl)benzofuran-4-yl)oxy)methyl)thiazol-2-yl)phenyl)(pyrrolidin-1-yl)methanone], the pEC50 was 9.44.
With `COc1nn2cc(-c3cc4c(OCc5csc(-c6ccc(C(=O)N(C)CC#N)cc6)n5)cc(F)cc4o3)nc2s1` [Example 184, N-(Cyanomethyl)-4-(4-(((6-fluoro-2-(2-methoxyimidazo[2,1-b][1,3,4]thiadiazol-6-yl)benzofuran-4-yl)oxy)methyl)thiazol-2-yl)-N-methylbenzamide] the pEC50 was 9.42.
`COc1nn2cc(-c3cc4c(OCc5csc(-c6ccc(C(=O)N(C)C)cc6)n5)cc(F)cc4o3)nc2s1` [Example 185, 4-(4-(((6-Fluoro-2-(2-methoxyimidazo[2,1-b][1,3,4]thiadiazol-6-yl)benzofuran-4-yl)oxy)methyl)thiazol-2-yl)-N,N-dimethylbenzamide] gave a pEC50 of 9.39.
For `CNC(=O)c1ccc(-c2nc(COc3cc(F)cc4oc(-c5cn6nc(OC)sc6n5)cc34)c(C)s2)cc1` [Example 186, 4-(4-(((6-Fluoro-2-(2-methoxyimidazo[2,1-b][1,3,4]thiadiazol-6-yl)benzofuran-4-yl)oxy)methyl)-5-methylthiazol-2-yl)-N-methylbenzamide], the pEC50 was 9.24.
`COc1nn2cc(-c3cc4c(OCc5csc(-c6ccccc6)n5)cc(Cl)cc4o3)nc2s1` [Example 187, 6-(6-Chloro-4-((2-phenylthiazol-4-yl)methoxy)benzofuran-2-yl)-2-methoxyimidazo[2,1-b][1,3,4]thiadiazole] was tested, and the pEC50 was 8.80.
For `COc1nn2cc(-c3cc4c(OCc5csc(-c6ccc(Cl)cc6)n5)cc(Cl)cc4o3)nc2s1` [Example 188, 6-(6-Chloro-4-((2-(4-chlorophenyl)thiazol-4-yl)methoxy)benzofuran-2-yl)-2-methoxyimidazo[2,1-b][1,3,4]thiadiazole], the pEC50 was 9.07.
